The text below walks through data of patent US7973063B2, “Methods for activating PPAR gamma-type receptors” (Galderma Research & Development, priority 2004, dated 2011).

SMILES strings stand for the structures. pKd: −log10 of the molar value. Like-named read-outs stand apart in the source and are kept apart here.

For one assay, the target named is T1, PPARδ (Homo sapiens, UniProt Q03181).
T1 construct: Either is a handle for the test and no part of the key
T1 sequence (Q03181 171-441 limits assumed): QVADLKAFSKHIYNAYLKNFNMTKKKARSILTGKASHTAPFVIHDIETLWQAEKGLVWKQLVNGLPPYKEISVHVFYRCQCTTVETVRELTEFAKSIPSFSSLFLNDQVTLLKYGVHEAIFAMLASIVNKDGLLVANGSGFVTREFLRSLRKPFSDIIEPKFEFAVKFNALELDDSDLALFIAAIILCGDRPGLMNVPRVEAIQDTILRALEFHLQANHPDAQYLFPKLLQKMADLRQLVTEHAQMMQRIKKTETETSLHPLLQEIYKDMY
Description: Crossed-curve PPAR transactivation assay (PPARδ). It is filed as cell-based. As to conditions: HeLN cells stably transfected with Gal-hPPARδ and luciferase reporter; crossed curves vs reference agonist, Schild regression; read-out: PPARδ KdApp. How it is done: (§1) Activation of the PPAR receptors by an agonist (activator) in HeLN cells leads to the expression of a reporter gene, luciferase, which, in the presence of a substrate, generates light. The modulation of the PPAR receptors is measured by quantifying the luminescence produced after incubation of the cells in the presence of a reference agonist. The ligands will displace the agonist from its site. The measurement of the activity is performed by quantifying the light produced. This measurement makes it possible to determine the modulatory activity of the compounds according to the invention by the determination of the constant which is the affinity of the molecule for the PPAR receptor. Since this value can fluctuate depending on the basal activity and the expression of the receptor, it is referred to as apparent Kd (KdApp in nM).
(§2) To determine this constant, “crossed curves” for the test product, against a reference agonist, are prepared using a 96-well plate: 10 concentrations of the test product plus a concentration 0 are arranged in a line, and 7 concentrations of the agonist plus a concentration 0 are arranged in a column. This is 88 measurement points for 1 product and 1 receptor. The remaining 8 wells are used for repeatability controls.
(§3) Measurements are also taken for total agonist controls with the same products.
(§4) The HeLN cell lines used are stable transfectants containing the plasmids ERE-βGlob-Luc-SV-Neo (reporter gene) and PPAR (α, δ, γ) Gal-hPPAR. These cells are seeded in 96-well plates at the rate of 10 000 cells per well in 100 μl of DMEM medium without phenol red and supplemented with 10% of defatted calf serum. The plates are then incubated for 16 hours at 37° C. and 7% CO2.
(§5) The various dilutions of the test products and of the reference ligand are added at the rate of 5 μl per well. The plates are subsequently incubated for 18 hours at 37° C. and 7% CO2. The culture medium is removed by turning over and 100 μl of a 1:1 PBS/luciferin mixture are added to each well. After 5 minutes, the plates are read using the luminescence reader.
For orientation: A reporter such as luciferase makes a cellular process visible.

The target in assay [1] is T2, PPARγ (Homo sapiens, UniProt P37231).
T2 construct: PPARγ KdApp; other: HeLN cells stably transfected with Gal-hPPARγ and luciferase reporter; KdApp in nM (PPARγ receptors), compounds according to the present invention; Either is a handle for the test and no part of the key
T2 sequence (P37231 238-505 limits assumed): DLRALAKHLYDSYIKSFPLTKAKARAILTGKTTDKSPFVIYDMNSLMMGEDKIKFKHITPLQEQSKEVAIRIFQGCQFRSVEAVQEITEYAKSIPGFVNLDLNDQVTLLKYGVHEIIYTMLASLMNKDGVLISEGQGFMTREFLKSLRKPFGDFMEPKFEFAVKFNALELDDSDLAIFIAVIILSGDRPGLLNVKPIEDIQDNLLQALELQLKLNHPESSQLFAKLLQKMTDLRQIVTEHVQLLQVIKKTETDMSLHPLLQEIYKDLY
The experiment in a line: Crossed-curve PPAR transactivation assay (PPARγ). The format is cell-based. To be noted: for pKd: HeLN cells stably transfected with Gal-hPPARγ and luciferase reporter, crossed curves vs reference agonist, Schild regression, read-out: PPARγ KdApp. How it is done:
as §1, §2, §3, §4, §5

Another assay has as its target T3, PPARα (Homo sapiens, UniProt Q07869).
T3 construct: Either is a handle for the test and no part of the key
T3 sequence (Q07869 200-468 limits assumed): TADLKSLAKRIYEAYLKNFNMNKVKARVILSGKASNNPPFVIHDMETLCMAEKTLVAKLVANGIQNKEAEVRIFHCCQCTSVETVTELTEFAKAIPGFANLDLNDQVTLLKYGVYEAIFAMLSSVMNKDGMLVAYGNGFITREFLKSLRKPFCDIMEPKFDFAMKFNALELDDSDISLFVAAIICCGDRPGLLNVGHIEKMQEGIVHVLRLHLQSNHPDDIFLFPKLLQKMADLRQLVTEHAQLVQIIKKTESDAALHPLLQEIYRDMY
Description: Crossed-curve PPAR transactivation assay (PPARα). The format is cell-based. As to conditions: HeLN cells stably transfected with Gal-hPPARα and luciferase reporter; crossed curves vs reference agonist, Schild regression; read-out: PPARα KdApp. The method, then: as §1, §2, §3, §4, §5

For assay [2], the target named is PPARγ. To be noted: Table 1, PPARγ receptors; values described for the compounds of FR-2,812,876; read-out: KdApp in nM (PPARγ receptors), compounds according to Patent FR 2 812 876; cited from earlier work.

Turning to `CCCCCCCNC(=O)N(C)c1cccc(-c2ccc(C[C@H](OCC)C(=O)O)cc2)c1` [Example 1, 2(S)-Ethoxy-3-[3′-(3-heptyl-1-methylureido)biphenyl-4-yl]propanoic acid], the pKd on PPARδ is 6.60; on PPARγ [1], greater than 9.00; at PPARα it was 7.52. On PPARγ [1] (Table 1, PPARγ receptors, read-out: KdApp in nM (PPARγ receptors), compounds according to the present invention), the Kd was less than 1 nM.

`CCCCCNC(=O)N(C)c1cccc(-c2ccc(C[C@H](OCC)C(=O)O)cc2)c1` [Example 2, 2(S)-Ethoxy-3-[3′-(1-methyl-3-pentylureido)biphenyl-4-yl]propanoic acid]: the results for the pKd on PPARδ, on PPARγ [1] and on PPARα were 5.70, 10.52 and 6.60, respectively.

`CCCCCCCNC(=O)N(C)c1cccc(-c2ccc(C[C@H](OCCC)C(=O)O)cc2)c1` [Example 4, 2-(S)-Propyloxy-3-[3′-(3-heptyl-1-methylureido)biphenyl-4-yl]propanoic acid]: the results for the pKd on PPARδ, on PPARγ [1] and at PPARα were 6.30, 10.60 and 7.52, respectively.

For the compound `CCCCCCCNC(=O)N(C)c1cccc(-c2ccc(C[C@H](OCc3ccccc3)C(=O)O)cc2)c1` [Example 5, 2(S)-Benzyloxy-3-[3′-(3-heptyl-1-methylureido)biphenyl-4-yl]propanoic acid], the pKd is 10.52 on PPARγ [1] and 6.60 on PPARα.

Turning to `C=CCO[C@@H](Cc1ccc(-c2cccc(N(C)C(=O)NCCCCCCC)c2)cc1)C(=O)O` [Example 6, 2(S)-Allyloxy-3-[3′-(3-heptyl-1-methylureido)biphenyl-4-yl]propanoic acid], the pKd at PPARδ is 7.30; on PPARγ [1] it was 11.52; at PPARα it was 8.70.

With `CCO[C@@H](Cc1ccc(-c2cccc(CN(C)C(=O)c3ccccc3)c2)cc1)C(=O)O` [Example 13, (S)-2-Ethoxy-3-(3′-{[methyl(1-phenylmethanoyl)amino]methyl}biphenyl-4-yl)propionic acid], the Kd at PPARγ [2] was 500 nM.

On to `CN(Cc1cccc(-c2ccc(CC3SC(=O)NC3=O)cc2)c1)C(=O)C(C)(C)C` (centres unmarked) [Example 22, N-[4′-(2,4-Dioxothiazolidin-5-ylmethyl)biphenyl-3-ylmethyl]-2,2,N-trimethylpropionamide], for which the Kd on PPARγ [2] is 250 nM.

Turning to `CCCCCCCCNC(=O)c1cccc(-c2ccc(CC3SC(=O)NC3=O)cc2)c1` (centres unmarked) [Example 23, N-Octyl-4′-(2,4-dioxothiazolidin-5-ylmethyl)biphenyl-3-carboxamide], at PPARγ [2], the Kd was 2000 nM.

Consider `CCCCCCCCCC(=O)N(C)Cc1cccc(-c2ccc(CC3SC(=O)NC3=O)cc2)c1` (centres unmarked) [Example 32, N-[4′-(2,4-Dioxothiazolidin-5-ylmethyl)biphenyl-3-ylmethyl]-N-methyldecanamide], for which the Kd on PPARγ [2] is 250 nM.

Consider `CCCCCCC(=O)N(C)Cc1cccc(-c2ccc(CC3SC(=O)NC3=O)cc2)c1` (centres unmarked) [Example 35, N-[4′-(2,4-Dioxothiazolidin-5-ylmethyl)biphenyl-3-ylmethyl]-N-methylheptanamide], for which the Kd on PPARγ [2] is 1000 nM.
